Reference: ChEMBL document CHEMBL1201862, “PubChem BioAssay data set” (2004)
Activity calls are given as the source filed them. For most assays here, no stated cut-off is given here; in the data, actives have a measured IC50 and inactives only a lower limit.

Experiments:
[1] = target: Glyceraldehyde-3-phosphate dehydrogenase (Homo sapiens, UniProt P04406)
[2] = target: T1, Alkaline phosphatase, tissue-nonspecific isozyme (Homo sapiens, UniProt P05186); assay: human TNAP enzyme inhibitors, SAR follow-up, biochemical, luminescent, dose response (AID 1056)
T1 sequence (P05186 whole entry): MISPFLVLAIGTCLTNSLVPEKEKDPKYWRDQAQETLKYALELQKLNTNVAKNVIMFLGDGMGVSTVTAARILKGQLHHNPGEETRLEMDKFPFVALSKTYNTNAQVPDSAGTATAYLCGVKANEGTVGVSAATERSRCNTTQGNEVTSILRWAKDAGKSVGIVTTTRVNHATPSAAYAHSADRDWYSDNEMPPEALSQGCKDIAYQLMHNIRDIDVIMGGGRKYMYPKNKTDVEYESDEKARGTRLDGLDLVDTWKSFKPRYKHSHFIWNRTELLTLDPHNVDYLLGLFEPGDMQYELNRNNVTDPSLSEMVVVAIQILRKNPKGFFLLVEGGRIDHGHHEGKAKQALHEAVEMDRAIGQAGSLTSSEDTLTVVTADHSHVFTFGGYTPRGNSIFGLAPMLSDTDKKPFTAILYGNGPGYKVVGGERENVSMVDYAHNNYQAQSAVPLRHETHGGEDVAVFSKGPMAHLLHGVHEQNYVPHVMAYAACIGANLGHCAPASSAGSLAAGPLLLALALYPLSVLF

[3] = target: T2, Sentrin-specific protease 8 (Homo sapiens, UniProt Q96LD8); assay type: functional;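 further: luminescence read-out of SENP8 inhibition, dose-response confirmation following an ultra-high-throughput screen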
T2 sequence (Q96LD8 whole entry): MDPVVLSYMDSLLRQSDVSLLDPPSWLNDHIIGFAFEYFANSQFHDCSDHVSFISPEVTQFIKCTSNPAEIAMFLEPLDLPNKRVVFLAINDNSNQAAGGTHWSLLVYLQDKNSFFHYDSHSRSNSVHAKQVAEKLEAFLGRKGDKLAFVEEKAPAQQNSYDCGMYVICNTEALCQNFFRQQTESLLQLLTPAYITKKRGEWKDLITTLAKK

[4] = target: T3, Sentrin-specific protease 7 (Homo sapiens, UniProt Q9BQF6); assay type: functional;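 further: Luminescence-based dose-response confirmation of ultra-high-throughput screening hits, measuring inhibition of SENP7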
T3 sequence (Q9BQF6 whole entry): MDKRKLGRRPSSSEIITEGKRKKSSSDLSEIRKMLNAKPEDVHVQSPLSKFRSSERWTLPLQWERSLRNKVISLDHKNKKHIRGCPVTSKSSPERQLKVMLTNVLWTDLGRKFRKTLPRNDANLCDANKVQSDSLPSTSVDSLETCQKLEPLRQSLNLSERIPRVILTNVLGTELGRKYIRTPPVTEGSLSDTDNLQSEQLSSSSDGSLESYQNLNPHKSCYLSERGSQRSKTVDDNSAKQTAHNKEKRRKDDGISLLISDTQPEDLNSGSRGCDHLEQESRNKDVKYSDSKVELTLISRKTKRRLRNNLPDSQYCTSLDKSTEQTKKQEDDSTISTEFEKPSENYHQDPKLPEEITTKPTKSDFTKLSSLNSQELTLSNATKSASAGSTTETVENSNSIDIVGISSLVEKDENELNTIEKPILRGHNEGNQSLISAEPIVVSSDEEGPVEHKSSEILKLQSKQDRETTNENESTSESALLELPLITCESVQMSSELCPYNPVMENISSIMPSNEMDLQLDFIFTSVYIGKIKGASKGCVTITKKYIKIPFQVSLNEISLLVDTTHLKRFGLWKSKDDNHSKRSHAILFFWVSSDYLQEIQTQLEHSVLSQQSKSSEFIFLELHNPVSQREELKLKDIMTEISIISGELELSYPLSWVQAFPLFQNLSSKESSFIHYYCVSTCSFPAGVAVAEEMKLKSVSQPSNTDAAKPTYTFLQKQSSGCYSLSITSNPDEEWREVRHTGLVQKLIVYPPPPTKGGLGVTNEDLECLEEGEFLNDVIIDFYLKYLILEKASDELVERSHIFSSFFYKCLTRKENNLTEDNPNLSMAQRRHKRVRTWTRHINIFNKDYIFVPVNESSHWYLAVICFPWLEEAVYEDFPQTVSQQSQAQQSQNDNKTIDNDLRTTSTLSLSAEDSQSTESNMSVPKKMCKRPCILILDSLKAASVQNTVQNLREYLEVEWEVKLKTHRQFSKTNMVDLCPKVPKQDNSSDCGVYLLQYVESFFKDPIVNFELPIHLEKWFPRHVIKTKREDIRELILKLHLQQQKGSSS

Caspase-3 = target: T4, Caspase-3 (Homo sapiens, UniProt P42574); assay type: functional;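 further: Dose-response selectivity test against caspase-3 for candidate inhibitors of sentrin-specific proteases (SENPs)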
T4 sequence (P42574 whole entry): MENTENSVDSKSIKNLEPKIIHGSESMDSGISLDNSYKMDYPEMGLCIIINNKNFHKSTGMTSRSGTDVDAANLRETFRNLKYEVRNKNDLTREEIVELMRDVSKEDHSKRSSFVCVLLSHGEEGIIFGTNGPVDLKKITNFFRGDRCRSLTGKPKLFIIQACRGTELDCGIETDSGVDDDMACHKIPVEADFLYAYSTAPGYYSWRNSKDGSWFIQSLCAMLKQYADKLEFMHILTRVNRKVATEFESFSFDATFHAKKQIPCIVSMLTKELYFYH

[5] = target: T5, Sentrin-specific protease 6 (Homo sapiens, UniProt Q9GZR1); assay type: functional;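 further: Luminescence-based dose-response confirmatory assay of SENP6 inhibition, following up an ultra-high-throughput screen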
T5 sequence (Q9GZR1 whole entry): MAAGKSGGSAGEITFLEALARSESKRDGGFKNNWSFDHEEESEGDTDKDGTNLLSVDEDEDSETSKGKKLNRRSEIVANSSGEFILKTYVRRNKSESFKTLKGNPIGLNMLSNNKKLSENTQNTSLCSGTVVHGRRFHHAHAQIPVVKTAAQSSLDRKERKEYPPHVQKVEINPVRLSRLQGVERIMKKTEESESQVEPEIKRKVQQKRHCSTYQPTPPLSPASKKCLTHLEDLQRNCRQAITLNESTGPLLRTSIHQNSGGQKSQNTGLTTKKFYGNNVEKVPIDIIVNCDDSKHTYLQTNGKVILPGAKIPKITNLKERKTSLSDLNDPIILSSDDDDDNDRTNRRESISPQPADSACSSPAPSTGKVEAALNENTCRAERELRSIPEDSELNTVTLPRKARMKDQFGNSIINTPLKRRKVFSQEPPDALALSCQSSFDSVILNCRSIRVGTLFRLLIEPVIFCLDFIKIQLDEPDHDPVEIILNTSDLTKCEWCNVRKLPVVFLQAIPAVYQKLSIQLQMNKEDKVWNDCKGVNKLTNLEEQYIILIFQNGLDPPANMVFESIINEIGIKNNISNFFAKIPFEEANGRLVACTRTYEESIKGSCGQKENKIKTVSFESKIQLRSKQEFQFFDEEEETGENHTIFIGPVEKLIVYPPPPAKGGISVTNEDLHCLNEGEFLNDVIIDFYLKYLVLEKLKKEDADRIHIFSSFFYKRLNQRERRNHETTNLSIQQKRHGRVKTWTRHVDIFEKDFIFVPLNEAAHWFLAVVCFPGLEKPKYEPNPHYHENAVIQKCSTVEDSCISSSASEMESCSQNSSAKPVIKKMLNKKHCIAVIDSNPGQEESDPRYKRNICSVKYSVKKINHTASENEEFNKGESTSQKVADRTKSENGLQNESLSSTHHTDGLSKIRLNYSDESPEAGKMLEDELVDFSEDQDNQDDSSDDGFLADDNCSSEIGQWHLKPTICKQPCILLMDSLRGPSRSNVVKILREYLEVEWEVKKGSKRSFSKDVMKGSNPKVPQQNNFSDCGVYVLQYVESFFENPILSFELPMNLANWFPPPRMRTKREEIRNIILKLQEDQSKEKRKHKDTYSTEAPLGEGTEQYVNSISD

[6] = target: T6, Ubiquitin-conjugating enzyme E2 N (Homo sapiens, UniProt P61088); assay type: functional
T6 sequence (P61088 whole entry): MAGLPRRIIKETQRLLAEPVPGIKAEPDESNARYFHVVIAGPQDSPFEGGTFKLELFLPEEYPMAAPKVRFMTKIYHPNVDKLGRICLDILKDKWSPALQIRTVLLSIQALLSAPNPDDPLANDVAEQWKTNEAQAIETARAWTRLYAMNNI

[7] = target: T6, Ubiquitin-conjugating enzyme E2 N; assay type: functional; remark: listed apart in the source
H9c2 = assay: cells; assay type: functional, cell-based; conditions: Rattus norvegicus, H9c2, Myocardium;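 further: confirmatory concentration-response retest of ultra-high-throughput screening hits for modulation of myocardial damage; cell death induced by hydrogen peroxide oxidative stress; compound pretreatment for 60 min then peroxide exposure for 2 h; potency is for protecting the cells against peroxide damage rather than for killing them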
Bcl-2-related protein A1 = target: T7, Bcl-2-related protein A1 (Mus musculus, UniProt Q07440); assay type: functional;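 further: confirmatory dose–response counterscreen on Bfl-1, used to check hits from a UBC13 polyubiquitin inhibitor campaign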
T7 sequence (Q07440 whole entry): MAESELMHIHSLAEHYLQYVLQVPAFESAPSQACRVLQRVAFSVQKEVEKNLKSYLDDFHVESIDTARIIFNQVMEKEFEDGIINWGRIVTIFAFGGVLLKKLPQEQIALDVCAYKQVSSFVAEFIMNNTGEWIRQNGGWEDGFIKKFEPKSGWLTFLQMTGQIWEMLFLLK

Nonstructural protein 1 = Nonstructural protein 1 (Influenza A virus, UniProt Q194T2); assay type: functional, Influenza A virus (A/California/07/2009(H1N1))
Nonstructural protein 1, sequence (Q194T2 whole entry): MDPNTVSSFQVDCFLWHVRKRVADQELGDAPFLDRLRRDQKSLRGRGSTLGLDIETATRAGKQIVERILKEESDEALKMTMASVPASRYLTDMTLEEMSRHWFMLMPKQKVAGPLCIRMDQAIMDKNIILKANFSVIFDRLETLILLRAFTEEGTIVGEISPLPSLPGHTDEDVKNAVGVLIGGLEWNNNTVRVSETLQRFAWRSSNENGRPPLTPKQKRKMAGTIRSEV

[8] = target: T8, Short transient receptor potential channel 4 (Mus musculus, UniProt Q9QUQ5); assay: mouse TRPC4 channel activators, dose response, cell-based, HEK293 TRPC4/mu-opioid, Fluo-4 calcium (AID 434937); assay type: functional
T8 sequence (Q9QUQ5 whole entry): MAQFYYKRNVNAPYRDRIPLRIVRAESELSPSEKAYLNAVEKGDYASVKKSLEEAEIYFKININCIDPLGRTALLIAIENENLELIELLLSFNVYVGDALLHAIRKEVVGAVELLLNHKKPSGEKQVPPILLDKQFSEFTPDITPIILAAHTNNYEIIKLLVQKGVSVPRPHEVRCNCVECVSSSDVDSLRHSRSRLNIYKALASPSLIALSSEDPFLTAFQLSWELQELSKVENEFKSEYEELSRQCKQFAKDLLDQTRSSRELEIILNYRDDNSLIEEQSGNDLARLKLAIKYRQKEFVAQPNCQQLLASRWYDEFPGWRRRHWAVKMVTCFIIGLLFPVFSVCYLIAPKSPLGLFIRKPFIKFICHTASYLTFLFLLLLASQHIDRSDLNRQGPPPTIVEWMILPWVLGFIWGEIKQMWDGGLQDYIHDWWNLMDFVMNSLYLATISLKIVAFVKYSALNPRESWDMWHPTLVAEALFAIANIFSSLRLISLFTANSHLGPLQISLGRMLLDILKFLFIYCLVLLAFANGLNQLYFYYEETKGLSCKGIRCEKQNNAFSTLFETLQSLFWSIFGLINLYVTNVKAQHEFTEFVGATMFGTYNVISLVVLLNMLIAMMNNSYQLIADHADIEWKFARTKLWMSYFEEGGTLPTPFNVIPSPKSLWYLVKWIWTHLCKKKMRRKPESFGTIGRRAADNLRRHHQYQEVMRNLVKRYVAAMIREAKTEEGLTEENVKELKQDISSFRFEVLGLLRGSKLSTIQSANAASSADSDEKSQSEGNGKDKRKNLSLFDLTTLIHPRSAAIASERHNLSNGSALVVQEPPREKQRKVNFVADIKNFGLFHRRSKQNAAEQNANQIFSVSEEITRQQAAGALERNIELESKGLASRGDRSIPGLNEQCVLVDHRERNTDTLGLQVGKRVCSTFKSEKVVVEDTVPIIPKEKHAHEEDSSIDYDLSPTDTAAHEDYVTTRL

Streptococcus = assay: Group A Streptococcus viability loss, dose response, counter-screen for streptokinase expression inhibitor project, luminescence, BacTiterGlo (AID 1915); assay type: functional, organism-based;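 further: potency for reduction of bacterial viability or growth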
[9] = test system: Streptococcus sp. 'group A'; assay: growth inhibition of control SK(-) GAS strain, dose response, counter-screen for streptokinase expression inhibitor project, luminescence, kanamycin, BacTiterGlo, confirmation (AID 1900); assay type: functional, organism-based
Vero [10] = assay: cells; assay type: functional, cell-based; conditions: Chlorocebus sabaeus
Vero [11] = assay: cells; assay type: functional; conditions: Chlorocebus sabaeus

Glyceraldehyde-3-phosphate dehydrogenase, sequence (P04406 whole entry): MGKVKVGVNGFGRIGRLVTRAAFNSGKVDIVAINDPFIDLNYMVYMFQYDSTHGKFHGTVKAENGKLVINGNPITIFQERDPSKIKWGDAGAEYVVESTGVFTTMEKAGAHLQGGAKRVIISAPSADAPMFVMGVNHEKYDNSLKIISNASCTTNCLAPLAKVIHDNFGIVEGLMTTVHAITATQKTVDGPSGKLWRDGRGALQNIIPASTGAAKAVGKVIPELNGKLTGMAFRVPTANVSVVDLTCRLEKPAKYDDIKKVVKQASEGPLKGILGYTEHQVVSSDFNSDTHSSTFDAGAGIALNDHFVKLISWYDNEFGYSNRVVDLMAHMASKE

Q: How did the IC50 [1] turn out when `O=S(=O)(Nc1ccc2ncccc2c1)c1ccccc1OC(F)(F)F` was run?
A: > 100 µM (not active)

Q: What about the IC50 [2] of the same molecule?
A: > 100 µM (inactive)

Q: What does the source list for `COc1cccc(NC(=O)C(S)=NC2CCCCC2)c1`?
A: IC50 [3]: 23 µM (active); IC50 [4]: 5.39 µM (active); IC50 (Caspase-3): 17.9 µM (active); IC50 [5]: 20.8 µM (active)

Q: `CCOC(=O)C1=C(COC(=O)c2cc(OC)c(OC)c(OC)c2)NC(=O)NC1C` (stereo unspecified) was tested. Which IC50 [6] did it give?
A: 6.85 µM (active)

Q: What about the IC50 [7] of the same molecule?
A: 8.55 µM (active)

Q: What about the IC50 (H9c2) of the same molecule?
A: 11.2 µM (active)

Q: What about the IC50 (Bcl-2-related protein A1) of the same molecule?
A: > 20 µM (inactive)

Q: What does the source list for `CN(Cc1ccccc1)C(=O)COC(=O)c1cc(-c2ccc(Cl)s2)nc2ccccc12`?
A: IC50 [6]: 11.8 µM (active); IC50 [7]: > 20 µM (inactive); IC50 (Bcl-2-related protein A1): > 20 µM (inactive)

Q: For `Oc1cc(Nc2ccncc2)cc2cccnc12`, which IC50 [6] is on record?
A: 8.54 µM (active)

Q: And the IC50 [7]?
A: 6.9 µM (active)

Q: And the IC50 (Bcl-2-related protein A1)?
A: > 20 µM (inactive)

Q: And the IC50 (Nonstructural protein 1)?
A: 5.11 µM (active)

Q: With `COC(=O)c1ccc(N=Nc2ccccc2)cc1` as the molecule, how does the IC50 [3] read?
A: 20.2 µM (active)

Q: What about the IC50 [4] of the same molecule?
A: 5.11 µM (active)

Q: What about the IC50 (Caspase-3) of the same molecule?
A: 11.6 µM (active)

Q: What about the IC50 [5] of the same molecule?
A: 13.2 µM (active)

Q: For `COc1ccc(Cl)cc1C(=O)Nc1ccccc1N1CCN(C)CC1`, which EC50 [8] is on record?
A: 5.96 µM (active)

Q: How did the IC50 [6] turn out when `O=C1c2cccc3cccc(c23)N1Cc1ccc(F)cc1` was run?
A: 6.78 µM (active)

Q: And the IC50 [7]?
A: 5.15 µM (active)

Q: And the IC50 (Bcl-2-related protein A1)?
A: > 20 µM (inactive)

Q: Which results are given for `CCCOc1ccc(C(=O)NC(=S)NNC(=O)c2c(-c3ccccc3)noc2C)cc1`?
A: EC50 (Streptococcus): 0.596 µM (active); EC50 [9]: 0.137 µM (active); IC50 (Vero [10]): > 25 µM (active); EC50 [8]: 2.66 µM (active); CC50 (Vero [11]): 12.1 µM (active)

Q: For `COc1ccc(S(=O)(=O)n2cc(C(N)=O)c3ccccc32)cc1`, which IC50 [1] is on record?
A: > 100 µM (not active)

Q: And the IC50 [2]?
A: > 100 µM (inactive)

Q: Which IC50 [3] does the source give for `COc1ccccc1NC(=O)CCSc1ccc(C)cc1` here?
A: 37 µM (active)

Q: And the IC50 [4]?
A: 11.2 µM (active)

Q: And the IC50 (Caspase-3)?
A: 18.1 µM (active)

Q: What about the IC50 [5] of the same molecule?
A: 34.9 µM (active)
